Laboratory results from patent US12371428B2 (Exelixis, Inc., priority 2019, dated 2025).
Read-outs that look alike come from different tables or passages of the source.

Key:
Assay type in all cases: cell-based
[1] = molecular target: Met (phospho-Met, HGF-stimulated PC-3 prostate cancer cells) (Homo sapiens (Human), UniProt P08581); assay: Met autophosphorylation ELISA in PC-3 cells (Example F); conditions: cellular activity, read-out: c-Met IC50
Summary of the method: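 PC-3 cells, serum-starved 3 h, were treated with compounds (8-point dose curve, 0.3% DMSO final) for 1 h, then stimulated with 100 ng/mL recombinant human HGF for 10 min. Lysate phospho-Met (panTyr) was quantified by sandwich ELISA; IC50 from 4-parameter logistic fit.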

[2] = molecular target: KDR (phospho-KDR, VEGF165-stimulated HUVEC cells) (Homo sapiens (Human), UniProt P35968); assay: KDR autophosphorylation ELISA in HUVEC cells (Example G); conditions: cellular activity
Chain of KDR (phospho-KDR, VEGF165-stimulated HUVEC cells) (P35968 20-1356): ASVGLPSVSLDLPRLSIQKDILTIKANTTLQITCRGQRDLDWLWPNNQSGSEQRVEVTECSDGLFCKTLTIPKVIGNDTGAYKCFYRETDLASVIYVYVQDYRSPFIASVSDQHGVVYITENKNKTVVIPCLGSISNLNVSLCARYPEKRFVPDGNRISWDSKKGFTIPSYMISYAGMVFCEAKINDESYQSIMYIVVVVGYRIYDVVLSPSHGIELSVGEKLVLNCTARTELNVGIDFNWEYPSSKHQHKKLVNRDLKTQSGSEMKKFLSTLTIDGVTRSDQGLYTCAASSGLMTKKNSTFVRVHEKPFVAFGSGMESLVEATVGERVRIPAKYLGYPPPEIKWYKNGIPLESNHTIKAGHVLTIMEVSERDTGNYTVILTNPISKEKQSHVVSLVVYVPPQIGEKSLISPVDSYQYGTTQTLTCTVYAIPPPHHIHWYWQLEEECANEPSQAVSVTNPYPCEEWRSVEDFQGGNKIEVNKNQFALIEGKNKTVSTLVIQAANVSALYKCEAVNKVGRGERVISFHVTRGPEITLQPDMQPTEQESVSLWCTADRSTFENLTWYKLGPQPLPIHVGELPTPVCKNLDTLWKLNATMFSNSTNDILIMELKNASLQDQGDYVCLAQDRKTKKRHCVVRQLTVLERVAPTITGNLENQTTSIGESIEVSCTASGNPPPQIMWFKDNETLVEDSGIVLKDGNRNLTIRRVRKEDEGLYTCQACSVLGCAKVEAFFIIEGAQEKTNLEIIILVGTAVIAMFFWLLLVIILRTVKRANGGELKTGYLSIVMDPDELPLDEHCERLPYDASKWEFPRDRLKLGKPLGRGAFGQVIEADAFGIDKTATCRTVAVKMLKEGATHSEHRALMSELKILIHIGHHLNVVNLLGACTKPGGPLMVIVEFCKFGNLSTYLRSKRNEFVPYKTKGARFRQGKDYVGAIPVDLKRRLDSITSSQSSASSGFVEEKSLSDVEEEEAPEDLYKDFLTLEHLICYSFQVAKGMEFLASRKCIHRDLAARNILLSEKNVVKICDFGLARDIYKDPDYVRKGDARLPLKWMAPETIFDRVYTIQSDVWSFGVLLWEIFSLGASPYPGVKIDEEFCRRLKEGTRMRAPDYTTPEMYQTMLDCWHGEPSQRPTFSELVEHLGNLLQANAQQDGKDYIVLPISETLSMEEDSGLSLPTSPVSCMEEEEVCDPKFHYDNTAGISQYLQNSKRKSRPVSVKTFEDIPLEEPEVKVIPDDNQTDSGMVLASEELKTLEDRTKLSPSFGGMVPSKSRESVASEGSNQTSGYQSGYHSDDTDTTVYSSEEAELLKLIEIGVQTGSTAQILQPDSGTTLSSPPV
Summary of the method: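 HUVEC cells, serum-starved 24 h, were treated 1 h with an 8-point compound dilution (0.3% DMSO) and then stimulated with 100 ng/mL VEGF165 for 5 min. Phospho-KDR in lysates was quantified by sandwich ELISA against a phospho-KDR standard. IC50 from a 4-parameter logistic fit, normalised between stimulated DMSO and unstimulated controls.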

[3] = molecular target: AXL (phospho-AXL, Gas6-stimulated A-172 glioblastoma cells) (Homo sapiens (Human), UniProt P30530); assay: AXL autophosphorylation ELISA in A-172 cells (Example E); conditions: cellular activity, read-out: Axl IC50
Chain of AXL (phospho-AXL, Gas6-stimulated A-172 glioblastoma cells) (P30530 26-894): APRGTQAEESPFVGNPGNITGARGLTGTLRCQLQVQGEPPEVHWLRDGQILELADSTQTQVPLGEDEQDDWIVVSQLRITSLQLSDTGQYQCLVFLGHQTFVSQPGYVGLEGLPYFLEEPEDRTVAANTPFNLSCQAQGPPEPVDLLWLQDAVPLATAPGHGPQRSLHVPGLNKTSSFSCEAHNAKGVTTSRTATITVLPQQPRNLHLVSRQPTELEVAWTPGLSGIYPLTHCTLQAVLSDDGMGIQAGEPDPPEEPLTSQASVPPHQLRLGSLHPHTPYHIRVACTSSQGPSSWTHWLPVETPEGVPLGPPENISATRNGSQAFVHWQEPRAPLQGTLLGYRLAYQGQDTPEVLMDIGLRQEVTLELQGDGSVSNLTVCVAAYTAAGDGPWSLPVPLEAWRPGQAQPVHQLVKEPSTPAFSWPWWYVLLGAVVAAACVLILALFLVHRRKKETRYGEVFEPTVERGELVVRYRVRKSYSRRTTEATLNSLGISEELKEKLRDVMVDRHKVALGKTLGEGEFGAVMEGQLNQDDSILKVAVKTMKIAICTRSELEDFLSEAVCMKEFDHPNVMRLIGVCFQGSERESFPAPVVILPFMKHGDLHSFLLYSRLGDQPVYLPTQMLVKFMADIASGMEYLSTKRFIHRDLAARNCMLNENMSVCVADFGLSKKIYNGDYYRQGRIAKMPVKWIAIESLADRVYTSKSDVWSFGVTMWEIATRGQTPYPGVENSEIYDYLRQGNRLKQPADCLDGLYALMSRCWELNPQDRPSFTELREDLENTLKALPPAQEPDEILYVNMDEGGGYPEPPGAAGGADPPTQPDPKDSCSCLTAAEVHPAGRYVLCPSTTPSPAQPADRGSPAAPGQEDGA
Protocol: A-172 cells were incubated at 37° C., 5% CO2 for 24 h and then starved for 24 h in serum-free medium. Test compounds were serially diluted to produce an 8-point dose curve in fresh serum-free medium to a final concentration of 0.3% DMSO (vehicle) and added to the cells and incubated for 1 h. […] Lysates were collected and 100 μL/well added into the human phospho-AXL DuoSet IC ELISA (R&D Systems #DYC2228-2). […] Positive control wells (100% activity) contained Gas6-stimulated, DMSO-treated cell lysates. Negative control wells (0% activity) contained Gas6-stimulated, reference inhibitor-treated cell lysates. IC50 values were calculated by nonlinear regression analysis using a 4-parameter logistic curve fit in ActivityBase XE (IDBS).

[4] = molecular target: Mer (phospho-Mer, MERTK-transfected 293A cells) (Homo sapiens (Human), UniProt Q12866); assay: Mer autophosphorylation ELISA in transient transfected 293A cells (Example H); conditions: cellular activity
Chain of Mer (phospho-Mer, MERTK-transfected 293A cells) (Q12866 21-999): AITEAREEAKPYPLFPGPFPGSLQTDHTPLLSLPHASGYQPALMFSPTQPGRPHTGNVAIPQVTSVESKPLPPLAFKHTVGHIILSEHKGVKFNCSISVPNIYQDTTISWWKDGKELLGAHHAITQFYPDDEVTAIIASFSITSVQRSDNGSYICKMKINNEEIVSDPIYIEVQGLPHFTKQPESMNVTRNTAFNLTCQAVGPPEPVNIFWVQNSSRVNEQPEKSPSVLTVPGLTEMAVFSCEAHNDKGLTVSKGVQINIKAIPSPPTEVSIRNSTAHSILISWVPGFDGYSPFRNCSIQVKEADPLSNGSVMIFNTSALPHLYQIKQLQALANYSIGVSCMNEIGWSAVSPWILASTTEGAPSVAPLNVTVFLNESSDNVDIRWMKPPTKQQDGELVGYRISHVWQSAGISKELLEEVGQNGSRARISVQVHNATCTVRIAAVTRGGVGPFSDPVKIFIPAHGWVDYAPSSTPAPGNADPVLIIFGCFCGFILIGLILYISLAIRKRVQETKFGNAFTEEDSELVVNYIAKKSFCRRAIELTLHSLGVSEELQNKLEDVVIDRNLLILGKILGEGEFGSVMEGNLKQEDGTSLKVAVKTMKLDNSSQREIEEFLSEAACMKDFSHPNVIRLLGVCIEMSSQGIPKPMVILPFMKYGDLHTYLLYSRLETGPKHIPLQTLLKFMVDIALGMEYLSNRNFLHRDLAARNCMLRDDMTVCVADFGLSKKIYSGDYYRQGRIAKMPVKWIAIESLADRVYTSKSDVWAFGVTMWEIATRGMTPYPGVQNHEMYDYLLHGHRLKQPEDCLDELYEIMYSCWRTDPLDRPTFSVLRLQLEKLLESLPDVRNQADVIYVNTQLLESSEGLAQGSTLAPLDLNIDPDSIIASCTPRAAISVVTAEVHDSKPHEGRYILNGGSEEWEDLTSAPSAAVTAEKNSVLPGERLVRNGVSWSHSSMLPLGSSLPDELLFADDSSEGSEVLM
Summary of the method: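 Inhibition of cellular Mer autophosphorylation is determined in 293A cells transiently expressing human MERTK after 1 h compound exposure (8 concentrations, serum-free, 0.3% DMSO). Phospho-Mer in clarified lysates is measured by ELISA, with DMSO and reference-inhibitor wells defining the 100% and 0% activity limits.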

[5] = Met autophosphorylation ELISA in PC-3 cells
[6] = KDR autophosphorylation ELISA in HUVEC cells
[7] = AXL autophosphorylation ELISA in A-172 cells
[8] = Mer autophosphorylation ELISA in transient transfected 293A cells

Chain of Met (phospho-Met, HGF-stimulated PC-3 prostate cancer cells) (P08581 25-1390): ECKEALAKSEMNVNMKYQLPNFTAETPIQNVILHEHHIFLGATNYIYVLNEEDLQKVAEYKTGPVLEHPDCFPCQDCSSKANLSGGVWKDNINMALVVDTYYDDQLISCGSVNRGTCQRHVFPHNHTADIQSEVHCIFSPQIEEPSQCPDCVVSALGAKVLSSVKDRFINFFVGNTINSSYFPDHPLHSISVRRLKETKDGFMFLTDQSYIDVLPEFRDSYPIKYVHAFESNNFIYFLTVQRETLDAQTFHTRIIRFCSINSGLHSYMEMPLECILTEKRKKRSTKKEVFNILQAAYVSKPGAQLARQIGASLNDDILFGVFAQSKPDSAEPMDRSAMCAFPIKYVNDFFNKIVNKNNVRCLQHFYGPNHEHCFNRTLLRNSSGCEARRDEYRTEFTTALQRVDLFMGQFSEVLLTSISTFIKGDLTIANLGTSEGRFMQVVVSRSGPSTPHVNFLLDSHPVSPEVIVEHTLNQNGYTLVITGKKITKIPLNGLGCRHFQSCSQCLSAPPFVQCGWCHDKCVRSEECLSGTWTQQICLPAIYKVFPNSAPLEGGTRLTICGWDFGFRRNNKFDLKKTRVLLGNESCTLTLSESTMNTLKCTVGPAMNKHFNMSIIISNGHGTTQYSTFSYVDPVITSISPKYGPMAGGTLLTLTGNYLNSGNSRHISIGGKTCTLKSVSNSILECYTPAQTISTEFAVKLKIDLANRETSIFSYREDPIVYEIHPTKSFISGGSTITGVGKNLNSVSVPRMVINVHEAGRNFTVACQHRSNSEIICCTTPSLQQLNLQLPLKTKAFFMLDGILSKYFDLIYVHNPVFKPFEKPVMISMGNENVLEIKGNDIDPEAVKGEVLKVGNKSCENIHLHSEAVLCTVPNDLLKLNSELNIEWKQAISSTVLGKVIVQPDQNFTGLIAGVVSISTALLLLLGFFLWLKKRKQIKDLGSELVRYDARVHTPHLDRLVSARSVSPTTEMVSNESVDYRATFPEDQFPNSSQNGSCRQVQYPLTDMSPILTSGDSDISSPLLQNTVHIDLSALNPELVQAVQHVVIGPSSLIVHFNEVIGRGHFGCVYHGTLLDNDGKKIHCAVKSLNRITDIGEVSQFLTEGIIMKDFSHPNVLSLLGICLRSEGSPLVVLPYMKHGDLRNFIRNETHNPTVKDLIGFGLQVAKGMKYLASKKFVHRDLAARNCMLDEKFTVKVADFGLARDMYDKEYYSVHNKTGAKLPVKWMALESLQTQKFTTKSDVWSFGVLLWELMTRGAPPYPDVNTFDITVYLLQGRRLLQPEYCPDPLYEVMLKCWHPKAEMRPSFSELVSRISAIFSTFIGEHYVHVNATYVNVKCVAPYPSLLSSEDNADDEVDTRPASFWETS

IC50 [1, 5] [nM]	IC50 [2, 6] [nM]	IC50 [3, 7] [nM]	IC50 [4, 8] [nM]	IC50 ([1]; PC-3 cells) [nM]	IC50 ([2]; HUVEC cells) [nM]	IC50 ([3]; A-172 cells) [nM]	IC50 ([4]; transfected 293A cells) [nM]	Structure (SMILES)
< 100	< 100	< 100	< 100					COCc1nc(C)c(-c2ccc(F)cc2)c(O)c1C(=O)Nc1ccc(Oc2ccnc3cc(C)c(F)nc23)c(F)c1 [Compound 446, N-[3-fluoro-4-[(6-fluoro-7-methyl-1,5-naphthyridin-4-yl)oxy]phenyl]-5-(4-fluorophenyl)-4-hydroxy-2-(methoxymethyl)-6-methylpyridine-3-carboxamide]
< 100	< 100	< 100	< 100					CCOc1nc2c(Oc3ccc(NC(=O)c4c(C)nc(C)c(-c5ccc(F)cc5C)c4O)cc3)ccnc2cc1OC [Compound 674, N-[4-[(6-ethoxy-7-methoxy-1,5-naphthyridin-4-yl)oxy]phenyl]-5-(4-fluoro-2-methylphenyl)-4-hydroxy-2,6-dimethylpyridine-3-carboxamide]
< 100	< 100	< 100	< 100					CNC(=O)Cc1nc2c(Oc3ccc(NC(=O)c4cnc(C)c(-c5ccc(F)cc5)c4O)cc3F)ccnc2cc1OC [Compound 570, N-[3-Fluoro-4-[[7-methoxy-6-[2-(methylamino)-2-oxoethyl]-1,5-naphthyridin-4-yl]oxy]phenyl]-5-(4-fluorophenyl)-4-hydroxy-6-methylpyridine-3-carboxamide]
< 100	< 100	< 100	< 100					COc1cnc2c(Oc3cc(F)c(NC(=O)c4c(C)nc(C)c(-c5ccc(F)cc5C)c4O)cc3Cl)ccnc2c1 [Compound 770, N-[5-chloro-2-fluoro-4-[(7-methoxy-1,5-naphthyridin-4-yl)oxy]phenyl]-5-(4-fluoro-2-methylphenyl)-4-hydroxy-2,6-dimethylpyridine-3-carboxamide]
				< 100	> 300	< 100	< 100	COc1cnc2c(Oc3ccc(NC(=O)c4c5n(cc(-c6ccc(F)cc6)c4=O)CCOC5)cc3F)ccnc2c1 [Compound 809, N-[3-fluoro-4-[(7-methoxy-1,5-naphthyridin-4-yl)oxy]phenyl]-7-(4-fluorophenyl)-8-oxo-3,4-dihydro-1H-pyrido[2,1-c][1,4]oxazine-9-carboxamide]
< 100	< 100	< 100	< 100					CCOc1nc2c(Oc3ccc(NC(=O)c4cnc(C)c(-c5ccc(F)cc5C)c4O)cc3)ccnc2cc1OC [Compound 673, N-[4-[(6-ethoxy-7-methoxy-1,5-naphthyridin-4-yl)oxy]phenyl]-5-(4-fluoro-2-methylphenyl)-4-hydroxy-6-methylpyridine-3-carboxamide]
< 100		< 100	< 100					CCOCc1nc(C)c(-c2ccc(F)cc2)c(O)c1C(=O)Nc1ccc(Oc2ccnc3cc(OC)c(OC)nc23)c(F)c1 [Compound 213, N-[4-[(6,7-Dimethoxy-1,5-naphthyridin-4-yl)oxy]-3-fluorophenyl]-2-(ethoxymethyl)-5-(4-fluorophenyl)-4-hydroxy-6-methylpyridine-3-carboxamide]
				100 to 300		< 100	< 100	COc1cnc2c(Oc3ccc(NC(=O)c4c(C)n(CCF)cc(-c5ccc(F)c(F)c5)c4=O)cc3F)ccnc2c1 [Compound 807, 5-(3,4-difluorophenyl)-1-(2-fluoroethyl)-N-[3-fluoro-4-[(7-methoxy-1,5-naphthyridin-4-yl)oxy]phenyl]-2-methyl-4-oxopyridine-3-carboxamide]
< 100		< 100	< 100					COc1cnc2c(Oc3ccc(NC(=O)c4cn(CC(F)F)c(C)c(-c5ccc(F)cc5)c4=O)cc3F)ccnc2c1 [Compound 625, 1-(2,2-Difluoroethyl)-N-[3-fluoro-4-[(7-methoxy-1,5-naphthyridin-4-yl)oxy]phenyl]-5-(4-fluorophenyl)-6-methyl-4-oxopyridine-3-carboxamide]
< 100		< 100	< 100					COc1cc2nccc(Oc3ccc(NC(=O)c4cn(CCF)c(C)c(-c5ccc(F)cc5C)c4=O)cc3)c2nc1OC [Compound 800, N-[4-[(6,7-dimethoxy-1,5-naphthyridin-4-yl)oxy]phenyl]-1-(2-fluoroethyl)-5-(4-fluoro-2-methylphenyl)-6-methyl-4-oxopyridine-3-carboxamide]
< 100		< 100	< 100					COc1cc2nccc(Oc3ccc(NC(=O)c4cn(CC(F)F)c(C)c(-c5ccc(F)cc5)c4=O)cc3F)c2nc1OC [Compound 623, 1-(2,2-Difluoroethyl)-N-[4-[(6,7-dimethoxy-1,5-naphthyridin-4-yl)oxy]-3-fluorophenyl]-5-(4-fluorophenyl)-6-methyl-4-oxopyridine-3-carboxamide]
< 100		< 100	< 100					COCc1c(C(=O)Nc2ccc(Oc3ccnc4cc(OC)c(OC)nc34)c(F)c2)c(=O)c(-c2ccc(F)cc2)c(C)n1C [Compound 336, N-[4-[(6,7-dimethoxy-1,5-naphthyridin-4-yl)oxy]-3-fluorophenyl]-5-(4-fluorophenyl)-2-(methoxymethyl)-1,6-dimethyl-4-oxopyridine-3-carboxamide]
< 100		< 100	< 100					CCOCc1nc(C)c(-c2ccc(F)cc2)c(O)c1C(=O)Nc1ccc(Oc2ccnc3cc(OC)cnc23)c(F)c1 [Compound 214, 2-(Ethoxymethyl)-N-[3-fluoro-4-[(7-methoxy-1,5-naphthyridin-4-yl)oxy]phenyl]-5-(4-fluorophenyl)-4-hydroxy-6-methylpyridine-3-carboxamide]
< 100		< 100	< 100					COc1cc2nccc(Oc3ccc(NC(=O)c4cn(CCF)c(C)c(-c5ccc(F)cc5C)c4=O)cc3F)c2nc1OC [Compound 801, N-[4-[(6,7-dimethoxy-1,5-naphthyridin-4-yl)oxy]-3-fluorophenyl]-1-(2-fluoroethyl)-5-(4-fluoro-2-methylphenyl)-6-methyl-4-oxopyridine-3-carboxamide]
< 100		< 100	< 100					COc1cnc2c(Oc3ccc(NC(=O)c4cn(CCF)c(C)c(-c5ccc(F)cc5C)c4=O)cc3F)ccnc2c1 [Compound 799, 1-(2-fluoroethyl)-N-[3-fluoro-4-[(7-methoxy-1,5-naphthyridin-4-yl)oxy]phenyl]-5-(4-fluoro-2-methylphenyl)-6-methyl-4-oxopyridine-3-carboxamide]
< 100		< 100	< 100					COc1cnc2c(Oc3ccc(NC(=O)c4cn(C(F)F)c(C)c(-c5ccc(F)cc5)c4=O)cc3F)ccnc2c1 [Compound 626, 1-(Difluoromethyl)-N-[3-fluoro-4-[(7-methoxy-1,5-naphthyridin-4-yl)oxy]phenyl]-5-(4-fluorophenyl)-6-methyl-4-oxopyridine-3-carboxamide]
< 100		< 100	< 100					COCc1nc(C)c(-c2ccc(F)cc2F)c(O)c1C(=O)Nc1ccc(Oc2ccnc3cc(OC)c(OC)nc23)c(F)c1 [Compound 212, 5-(2,4-Difluorophenyl)-N-[4-[(6,7-dimethoxy-1,5-naphthyridin-4-yl)oxy]-3-fluorophenyl]-4-hydroxy-2-(methoxymethyl)-6-methylpyridine-3-carboxamide]
< 100		< 100	< 100					COc1cc2nccc(Oc3ccc(NC(=O)c4cc(F)c(C)n(-c5ccc(F)cc5)c4=O)cc3F)c2nc1OC [Compound 337, N-[4-[(6,7-dimethoxy-1,5-naphthyridin-4-yl)oxy]-3-fluorophenyl]-5-fluoro-1-(4-fluorophenyl)-6-methyl-2-oxopyridine-3-carboxamide]
				< 100		< 100	< 100	COc1cc2nccc(Oc3ccc(NC(=O)c4c(C)n(CCF)cc(-c5ccc(F)c(C)c5)c4=O)cc3F)c2nc1OC [Compound 806, N-[4-[(6,7-dimethoxy-1,5-naphthyridin-4-yl)oxy]-3-fluorophenyl]-1-(2-fluoroethyl)-5-(4-fluoro-3-methylphenyl)-2-methyl-4-oxopyridine-3-carboxamide]
